Experimental data: patent US20260364214A1, “MULTIVALENT FIBROBLAST ACTIVATION PROTEIN LIGANDS FOR TARGETED DELIVERY APPLICATIONS” (Philochem AG, priority 2022, published 2026)

Test system: SK-RC-52.hFAP tumors
Assay: Quantitative biodistribution in SK-RC-52.hFAP tumor bearing mice
Assay type: in vivo, mouse (female athymic Balb/c AnNRj-Foxn1)
Settings: i.v. 250 nmol/kg, 50 MBq/kg
Procedure: SK-RC-52.hFAP were grown to 80% confluence in RPMI-1640 with 10% fetal bovine serum (FBS) and 1% antibiotic-antimycotic and detached with Trypsin-EDTA (ethylenediaminetetraacetic acid) 0.05%. Tumor cells were resuspended in Hanks' Balanced Salt Solution medium. Aliquots of 5 million cells (100 μL of suspension) were injected subcutaneously in the right flank of female athymic Balb/c AnNRj-Foxn1 mice (6 to 8 wk of age).
Radiolabeling of ESV6-DOTAGA, Bi-ESV6-DOTAGA, Tri-ESV6-DOTAGA, Tetra-ESV6-DOTAGA, Hexa-ESV6-DOTAGA, Octa-ESV6-DOTAGA and FAP-2286 with lutetium-177 (a therapeutic radionuclide) was performed with different specific activities for three different studies (biodistribution, therapy and dose optimization).
Prior to the biodistribution study, precursors (100 nmol) were dissolved in 100 μL of milliQ water and diluted with 200 μL of sodium acetate (1 M in water, pH=4.5). 20 MBq of ^177Lu solution were added and the mixture was heated at 90 °C for 10 minutes, followed by dilution with […] of PBS to achieve final volume of 2 mL (20 doses of 100 μL each).
ESV6-DOTAGA, Bi-ESV6-DOTAGA, Tri-ESV6-DOTAGA, Tetra-ESV6-DOTAGA, Hexa-ESV6-DOTAGA, Octa-ESV6-DOTAGA and FAP-2286 were radiolabeled with ^177Lu as described above. Tumors were allowed to grow to an average volume of 300 mm^3. Mice were randomized and injected intravenously with radiolabeled preparations of ^177Lu-ESV6, ^177Lu-Bi-ESV6, ^177Lu-Tri-ESV6, Tetra-ESV6-DOTAGA, Hexa-ESV6-DOTAGA, Octa-ESV6-DOTAGA or ^177Lu-FAP-2286 (250 nmol/kg; 50 MBq/kg). Mice were euthanized at different time-points after the intravenous injection by CO2 asphyxiation. Tumors, organs, and blood were collected, weighted, and radioactivity was measured with a Packard Cobra Gamma Counter. Values are expressed as percent ID/g±SD [FIG. 4]. The % ID/g in the tumors was corrected considering the SK-RC-52.hFAP tumor growth rate.
Quantitative in vivo biodistribution of ^177Lu-ESV6-DOTAGA, ^177Lu-Bi-ESV6-DOTAGA, ^177Lu-Tri-ESV6-DOTAGA, ^177Lu-FAP-2286, Tetra-ESV6-DOTAGA, Hexa-ESV6-DOTAGA and Octa-ESV6-DOTAGA at different time points after intravenous administration (250 nmol/kg, 50 MBq/kg) in mice bearing SK-RC-52.hFAP tumors, are shown in Tables 1 to 4 and 10 to 12. Data are reported as % ID/g±standard deviation.
Tumor-to-organ ratios of ^177Lu-ESV6-DOTAGA, ^177Lu-Bi-ESV6-DOTAGA, ^177Lu-Tri-ESV6-DOTAGA, ^177Lu-FAP-2286, Tetra-ESV6-DOTAGA, Hexa-ESV6-DOTAGA and Octa-ESV6-DOTAGA, at different time points after intravenous administration (250 nmol/kg, 50 MBq/kg) in mice bearing SK-RC-52.hFAP tumors, are shown in Tables 5 to 8 and 13 to 15. Avg.=average; Std.d=standard deviation.

Compound: N#C[C@@H]1CC(F)(F)CN1C(=O)CNC(=O)c1ccnc2c(NC(=O)CCC(=O)NCCNC(=O)CCOCC(COCCC(=O)NCCNC(=O)CCC(=O)Nc3cccc4c(C(=O)NCC(=O)N5CC(F)(F)C[C@H]5C#N)ccnc34)(COCCC(=O)NCCNC(=O)CCC(=O)Nc3cccc4c(C(=O)NCC(=O)N5CC(F)(F)C[C@H]5C#N)ccnc34)NC(=O)CCOCC(COCCC(=O)NC(COCCC(=O)NCCNC(=O)CCC(=O)Nc3cccc4c(C(=O)NCC(=O)N5CC(F)(F)C[C@H]5C#N)ccnc34)(COCCC(=O)NCCNC(=O)CCC(=O)Nc3cccc4c(C(=O)NCC(=O)N5CC(F)(F)C[C@H]5C#N)ccnc34)COCCC(=O)NCCNC(=O)CCC(=O)Nc3cccc4c(C(=O)NCC(=O)N5CC(F)(F)C[C@H]5C#N)ccnc34)NC(=O)CCC(C(=O)O)N3CCN(CC(=O)[O-])CCN(CC(=O)[O-])CCN(CC(=O)[O-])CC3)cccc12.[177Lu+3] (stereo partly drawn) [^177Lu-Hexa-ESV6-DOTAGA]
- Tumor to organs ratio, Blood (6 h): 7.84
- Injected dose per gram, Blood (6 h post injection): 0.36 % ID/g
- Tumor to organs ratio, Blood (24 h): 17.77
- Injected dose per gram, Blood (24 h post injection): 0.10 % ID/g
- Tumor to organs ratio, Blood (96 h): 85.06
- Injected dose per gram, Blood (96 h post injection): 0.02 % ID/g
- Tumor to organs ratio, Heart (6 h): 8.50
- Injected dose per gram, Heart (6 h post injection): 0.33 % ID/g
- Tumor to organs ratio, Heart (24 h): 7.90
- Injected dose per gram, Heart (24 h post injection): 0.23 % ID/g
- Tumor to organs ratio, Heart (96 h): 8.99
- Injected dose per gram, Heart (96 h post injection): 0.16 % ID/g
- Tumor to organs ratio, Intestine (6 h): 13.86
- Injected dose per gram, Intestine (6 h post injection): 0.24 % ID/g
- Tumor to organs ratio, Intestine (24 h): 20.76
- Injected dose per gram, Intestine (24 h post injection): 0.10 % ID/g
- Tumor to organs ratio, Intestine (96 h): 20.47
- Injected dose per gram, Intestine (96 h post injection): 0.07 % ID/g
- Tumor to organs ratio, Kidney (6 h): 5.24
- Injected dose per gram, Kidney (6 h post injection): 0.53 % ID/g
- Tumor to organs ratio, Kidney (24 h): 3.37
- Injected dose per gram, Kidney (24 h post injection): 0.57 % ID/g
- Tumor to organs ratio, Kidney (96 h): 0.99
- Injected dose per gram, Kidney (96 h post injection): 1.37 % ID/g
- Tumor to organs ratio, Liver (6 h): 0.04
- Injected dose per gram, Liver (6 h post injection): 62.54 % ID/g
- Tumor to organs ratio, Liver (24 h): 0.03
- Injected dose per gram, Liver (24 h post injection): 53.45 % ID/g
- Tumor to organs ratio, Liver (96 h): 0.03
- Injected dose per gram, Liver (96 h post injection): 49.80 % ID/g
- Tumor to organs ratio, Lung (6 h): 0.43
- Injected dose per gram, Lung (6 h post injection): 6.91 % ID/g
- Tumor to organs ratio, Lung (24 h): 0.34
- Injected dose per gram, Lung (24 h post injection): 5.33 % ID/g
- Tumor to organs ratio, Lung (96 h): 1.10
- Injected dose per gram, Lung (96 h post injection): 1.38 % ID/g
- Tumor to organs ratio, Muscle (6 h): 9.52
- Injected dose per gram, Muscle (6 h post injection): 0.66 % ID/g
- Tumor to organs ratio, Muscle (24 h): 13.70
- Injected dose per gram, Muscle (24 h post injection): 0.14 % ID/g
- Tumor to organs ratio, Muscle (96 h): 35.84
- Injected dose per gram, Muscle (96 h post injection): 0.05 % ID/g
- Tumor to organs ratio, Spleen (6 h): 0.07
- Injected dose per gram, Spleen (6 h post injection): 41.26 % ID/g
- Tumor to organs ratio, Spleen (24 h): 0.04
- Injected dose per gram, Spleen (24 h post injection): 47.44 % ID/g
- Tumor to organs ratio, Spleen (96 h): 0.04
- Injected dose per gram, Spleen (96 h post injection): 38.61 % ID/g
- Tumor to organs ratio, Tail (6 h): 4.76
- Injected dose per gram, Tail (6 h post injection): 0.70 % ID/g
- Tumor to organs ratio, Tail (24 h): 1.39
- Injected dose per gram, Tail (24 h post injection): 1.65 % ID/g
- Tumor to organs ratio, Tail (96 h): 2.03
- Injected dose per gram, Tail (96 h post injection): 1.02 % ID/g
- Injected dose per gram, Tumor (6 h post injection): 2.77 % ID/g
- Injected dose per gram, Tumor (24 h post injection): 1.80 % ID/g
- Injected dose per gram, Tumor (96 h post injection): 1.36 % ID/g
